This passage reports antimicrobial activity and net charge results from patent US20240366717A1 (priority 2020, published 2024).

One series relates to E. coli. Briefly: Antibacterial assay of PEPXR hydrogels, E. coli. In kind it is cell-based. To be noted: evaluated against E. coli, S. aureus and P. aeruginosa. From the text: Thus, the peptide hydrogels described herein may generally comprise a high content of positively charged arginine (R) amino acids.
Series [1] is described as follows: Net peptide charge and isoelectric point as a function of pH. It counts as physicochemical. The settings on record: pH 7. From the text:
The peptide may be purified. For example, the peptide may be lyophilized. […] Other peptides are within the scope of the disclosure.
Exemplary peptides having a charge of +5 to +9 include […](d)[…], […](d)[…], and […](d)[…]. In other embodiments, the purified peptide may be substantially neutral. […] Net charge may be selected by peptide design. Design of electrostatic charge in the peptide hydrogel may allow control of charge interaction with cell membrane and proteins.

Square brackets hold non-standard residues; d marks the D form. Ends that are not written are not given here.

Take “VKVRVRVRVPPTRVRVRVKV (VKVRVRVRV[dP]PTRVRVRVKV-NH2) [PEP6R]”: in the series on E. coli, the antimicrobial activity entry is “potent antimicrobial activity”. For the substance VEVSVSVEV(d)PPTEVSVEVEV, the net charge entry in series [1] is listed as “net negative charge”.
